Test system: immunoglobulin light chain protein WIL-FL T46L
Assay: Differential scanning fluorimetry (thermal shift) assay
Format: binding
Settings: Table B; temperature shift [Tm]compound-[Tm]vehicle; recombinant WIL-FL T46L

SMILES	DSF
Cc1nc([C@H]2[C@]3(CO)CO[C@@]2(c2nc4c(C)cc(N5CC[C@](C)(c6ccccc6)C5)cn4n2)C3)n[nH]1 [Compound 581, ((1S,4R,5R)-5-(5-methyl-1H-1,2,4-triazol-3-yl)-1-(8-methyl-6-((R)-3-methyl-3-phenylpyrrolidin-1-yl)-[1,2,4]triazolo[1,5-a]pyridin-2-yl)-2-oxabicyclo[2.1.1]hexan-4-yl)methanol]	***** (>2.5° C.=*****)
Cc1cc(N2CC[C@](C)(c3ccccc3)C2)cn2nc(C34CC(CN)(CO3)C4CO)nc12 (stereo partly drawn) [Compound 582, (4-(aminomethyl)-1-(8-methyl-6-((R)-3-methyl-3-phenylpyrrolidin-1-yl)-[1,2,4]triazolo[1,5-a]pyridin-2-yl)-2-oxabicyclo[2.1.1]hexan-5-yl)methanol]	***** (>2.5° C.=*****)
CCS(=O)(=O)NCC12COC(c3nc4c(C)cc(N5CC[C@](C)(c6ccccc6)C5)cn4n3)(C1)C2CO (stereo partly drawn) [Compound 583, N-((5-(hydroxymethyl)-1-(8-methyl-6-((R)-3-methyl-3-phenylpyrrolidin-1-yl)-[1,2,4]triazolo[1,5-a]pyridin-2-yl)-2-oxabicyclo[2.1.1]hexan-4-yl)methyl)ethanesulfonamide]	***** (>2.5° C.=*****)
Cc1nc(C2C3(CNS(=O)(=O)CC(C)(C)C(=O)O)COC2(c2nc4c(C)cc(N5CC[C@](C)(c6ccccc6)C5)cn4n2)C3)n[nH]1 (stereo partly drawn) [Compound 584, 2,2-dimethyl-3-(N-((5-(5-methyl-11H-1,2,4-triazol-3-yl)-1-(8-methyl-6-((R)-3-methyl-3-phenylpyrrolidin-1-yl)-[1,2,4]triazolo[1,5-a]pyridin-2-yl)-2-oxabicyclo[2.1.1]hexan-4-yl)methyl)sulfamoyl)propanoic acid]	***** (>2.5° C.=*****)
COC(C)(CS(=O)(=O)NCC12COC(c3nc4c(C)cc(N5CC[C@](C)(c6ccccc6)C5)cn4n3)(C1)C2c1n[nH]c(C)n1)C(=O)O (stereo partly drawn) [Compound 585]	***** (>2.5° C.=*****)
Cc1nc(C2C3(CNC(=O)CC(C)(C)C(=O)O)COC2(c2nc4c(C)cc(N5CC[C@](C)(c6ccccc6)C5)cn4n2)C3)n[nH]1 (stereo partly drawn) [Compound 586]	***** (>2.5° C.=*****)
CCS(=O)(=O)NCC12COC(c3nc4c(C)cc(N5CC[C@](C)(c6ccccc6)C5)cn4n3)(C1)C2c1n[nH]c(C)n1 (stereo partly drawn) [Compound 587]	***** (>2.5° C.=*****)
CCC(=O)NCC12COC(c3nc4c(C)cc(N5CC[C@](C)(c6ccccc6)C5)cn4n3)(C1)C2c1n[nH]c(C)n1 (stereo partly drawn) [Compound 588]	***** (>2.5° C.=*****)
COC(C)(CC(=O)NCC12COC(c3nc4c(C)cc(N5CC[C@](C)(c6ccccc6)C5)cn4n3)(C1)C2c1nc(C)n[nH]1)C(=O)O (stereo partly drawn) [Compound 589]	***** (>2.5° C.=*****)
Cc1n[nH]c(C2C3(CNC(=O)C4CC[C@H](C(=O)O)O4)COC2(c2nc4c(C)cc(N5CC[C@](C)(c6ccccc6)C5)cn4n2)C3)n1 (stereo partly drawn) [Compound 590]	***** (>2.5° C.=*****)
Cc1n[nH]c(C23CC(NC(=O)c4nc5c(C)cc(N6CC[C@](C)(c7ccccc7)C6)cn5n4)(CO2)C3)n1 [Compound 591, (R)-8-methyl-N-(1-(3-methyl-1H-1,2,4-triazol-5-yl)-2-oxabicyclo[2.1.1]hexan-4-yl)-6-(3-methyl-3-phenylpyrrolidin-1-yl)-[1,2,4]triazolo[1,5-a]pyridine-2-carboxamide]	***** (>2.5° C.=*****)
Cc1cc(N2CC[C@](C)(c3ccccc3)C2)cn2nc(C(=O)N3CC4CC(C(=O)O)CC4C3)nc12 (stereo partly drawn) [Compound 592]	***** (>2.5° C.=*****)
Cc1cc(N2CC[C@@](C)(n3ccc(C(F)(F)F)n3)C2)cn2nc(C(=O)NC3COC4(COC4)C3)nc12 (stereo partly drawn) [Compound 593]	***** (>2.5° C.=*****)
Cc1cc(N2CC[C@](C)(c3ccccc3)C2)cn2nc(C(=O)N3CCC4(CCC(C(=O)O)O4)C3)nc12 (stereo partly drawn) [Compound 594]	***** (>2.5° C.=*****)
Cc1cc(N2CC[C@](C)(c3ccccc3)C2)cn2nc(C(=O)N3C[C@@H]4[C@@H](C(=O)O)CO[C@@H]4C3)nc12 [Compound 595]	***** (>2.5° C.=*****)

Source: US20260285857A1, “BICYCLIC AND HETEROCYCLIC AMIDE COMPOUNDS” (priority 2024, published 2026)
